According to ChEMBL document CHEMBL1152158, “Trifluoromethylpyrimidine-based inhibitors of proline-rich tyrosine kinase 2 (PYK2): structure-activity relationships and strategies for the elimination of reactive metabolite formation” (Bioorg Med Chem Lett, 2008):

Columns and labels:
[1] = biological target: T1, Focal adhesion kinase 1 (Homo sapiens, UniProt Q05397); test: Inhibition of GST-tagged FAK assessed as inhibition of poly-Glu-Tyr phosphorylation by fluorescence polarization assay
[2] = biological target: T1, Focal adhesion kinase 1
[3] = in vitro; conditions: human, liver microsomes
Description: Metabolic stability in human liver microsomes assessed as hepatic extraction ratio

[4] = biological target: Protein-tyrosine kinase 2-beta (Homo sapiens, UniProt Q14289)
Chain of Protein-tyrosine kinase 2-beta (Q14289 whole entry): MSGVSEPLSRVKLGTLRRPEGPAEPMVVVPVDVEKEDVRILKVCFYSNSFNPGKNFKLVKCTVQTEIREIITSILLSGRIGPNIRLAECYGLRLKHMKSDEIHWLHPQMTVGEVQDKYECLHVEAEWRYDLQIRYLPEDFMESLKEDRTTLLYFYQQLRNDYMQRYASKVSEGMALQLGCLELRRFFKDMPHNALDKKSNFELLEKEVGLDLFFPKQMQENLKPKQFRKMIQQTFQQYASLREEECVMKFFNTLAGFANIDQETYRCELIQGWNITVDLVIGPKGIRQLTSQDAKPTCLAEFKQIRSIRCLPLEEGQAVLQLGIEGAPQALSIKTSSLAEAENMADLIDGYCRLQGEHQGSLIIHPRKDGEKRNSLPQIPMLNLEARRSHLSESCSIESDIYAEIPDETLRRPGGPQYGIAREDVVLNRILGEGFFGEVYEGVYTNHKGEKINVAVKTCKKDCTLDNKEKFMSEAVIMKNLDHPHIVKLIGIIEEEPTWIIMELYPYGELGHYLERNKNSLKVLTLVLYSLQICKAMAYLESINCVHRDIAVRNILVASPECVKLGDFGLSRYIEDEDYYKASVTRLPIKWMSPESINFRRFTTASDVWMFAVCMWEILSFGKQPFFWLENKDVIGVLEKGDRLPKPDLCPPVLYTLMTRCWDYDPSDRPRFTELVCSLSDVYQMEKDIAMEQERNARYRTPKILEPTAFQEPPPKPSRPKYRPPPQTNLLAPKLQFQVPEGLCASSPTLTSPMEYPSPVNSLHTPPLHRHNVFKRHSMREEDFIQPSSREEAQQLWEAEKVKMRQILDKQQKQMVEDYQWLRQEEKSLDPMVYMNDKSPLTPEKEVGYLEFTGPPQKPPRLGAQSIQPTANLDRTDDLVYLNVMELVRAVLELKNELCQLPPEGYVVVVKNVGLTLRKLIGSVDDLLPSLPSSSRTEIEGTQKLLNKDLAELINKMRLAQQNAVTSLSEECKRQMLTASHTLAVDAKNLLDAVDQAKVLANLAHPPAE
Description: Inhibition of GST-tagged pyk2 assessed as inhibition of poly-Glu-Tyr phosphorylation

[5] = Oral bioavailability in rat; format: ADME, organism-based; conditions: in vivo

T1 sequence (Q05397 whole entry): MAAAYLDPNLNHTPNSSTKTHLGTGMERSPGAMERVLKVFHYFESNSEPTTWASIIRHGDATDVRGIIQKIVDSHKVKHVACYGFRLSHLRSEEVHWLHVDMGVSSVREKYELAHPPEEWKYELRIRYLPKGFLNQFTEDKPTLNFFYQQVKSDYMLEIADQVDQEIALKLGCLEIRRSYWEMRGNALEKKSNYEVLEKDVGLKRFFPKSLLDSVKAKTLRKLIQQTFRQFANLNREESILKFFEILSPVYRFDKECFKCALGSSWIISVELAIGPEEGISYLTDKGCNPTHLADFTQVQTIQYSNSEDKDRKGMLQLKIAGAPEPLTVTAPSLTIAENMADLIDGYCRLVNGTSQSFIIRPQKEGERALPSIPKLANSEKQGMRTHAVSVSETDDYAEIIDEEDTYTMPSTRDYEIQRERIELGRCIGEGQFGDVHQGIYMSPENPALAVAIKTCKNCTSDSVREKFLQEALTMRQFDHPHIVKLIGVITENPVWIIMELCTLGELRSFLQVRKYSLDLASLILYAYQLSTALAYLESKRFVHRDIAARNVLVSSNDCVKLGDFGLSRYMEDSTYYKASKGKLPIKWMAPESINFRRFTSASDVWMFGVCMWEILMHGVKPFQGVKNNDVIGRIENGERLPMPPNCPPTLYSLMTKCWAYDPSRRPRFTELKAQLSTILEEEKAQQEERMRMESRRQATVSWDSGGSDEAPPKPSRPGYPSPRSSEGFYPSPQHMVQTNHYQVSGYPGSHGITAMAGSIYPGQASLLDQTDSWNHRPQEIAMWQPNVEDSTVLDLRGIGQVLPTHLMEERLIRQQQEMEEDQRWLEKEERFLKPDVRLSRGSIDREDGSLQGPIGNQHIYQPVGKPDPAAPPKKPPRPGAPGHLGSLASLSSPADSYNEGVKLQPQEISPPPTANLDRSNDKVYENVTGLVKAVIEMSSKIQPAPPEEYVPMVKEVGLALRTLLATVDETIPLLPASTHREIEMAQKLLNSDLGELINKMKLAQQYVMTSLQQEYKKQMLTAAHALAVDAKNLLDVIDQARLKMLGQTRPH

SMILES | IC50 [1] [nM] | IC50 [2] [nM] | hepatic extraction ratio [3] | IC50 [4] [nM] | bioavailability [5] [%]
CN(C)[C@@H]1CCC[C@H]1Nc1nc(Nc2ccncc2)ncc1C(F)(F)F | 6900 | 4100 | 0.48 | – | –
CN(C)[C@@H]1CCC[C@H]1Nc1nc(Nc2ccc3c(c2)CS(=O)(=O)N3)ncc1C(F)(F)F | – | > 650 | < 0.26 | 50 | –
CN(C)C(=O)c1cccc(Nc2ncc(C(F)(F)F)c(N[C@@H]3CCC[C@H]3N(C)C)n2)c1 | 4000 | 3900 | 0.66 | – | –
CCN(CC)C(=O)c1ccc(Nc2ncc(C(F)(F)F)c(N[C@@H]3CCC[C@H]3N(C)C)n2)cc1 | – | 3300 | 0.66 | – | –
Cn1ccc2cc(Nc3ncc(C(F)(F)F)c(NCc4ccccn4)n3)ccc21 | – | – | – | – | < 5
O=C1Cc2cc(Nc3ncc(C(F)(F)F)c(NCc4ccccc4)n3)ccc2N1 | – | 34 | < 0.26 | 120 | –
FC(F)(F)c1cnc(Nc2ccc3[nH]ncc3c2)nc1NCc1ccccn1 | – | – | – | – | < 5
O=C1Cc2cc(Nc3nccc(NCc4ccccn4)n3)ccc2N1 | – | > 10000 | < 0.26 | > 10000 | –
Cc1cnc(Nc2ccc3c(c2)CC(=O)N3)nc1NCc1ccccn1 | – | 2200 | < 0.3 | > 3000 | –
O=C1CCCc2cc(Nc3ncc(C(F)(F)F)c(NC4CCC4)n3)ccc2N1 | – | – | – | 33 | –
CS(=O)(=O)c1cccc(CNc2nc(Nc3ccc4c(c3)CC(=O)N4)ncc2C(F)(F)F)c1 | – | 9 | 0.35 | > 1100 | –
CS(=O)(=O)c1ccccc1CNc1nc(Nc2ccc3c(c2)CC(=O)N3)ncc1C(F)(F)F | – | 59 | 0.55 | 15 | –
CN(c1ccccc1CNc1nc(Nc2ccc(S(C)(=O)=O)cc2)ncc1C(F)(F)F)S(C)(=O)=O | – | 0.94 | 0.93 | 35 | –
CN(C)[C@@H]1CCC[C@H]1Nc1nc(Nc2ccn3ccnc3c2)ncc1C(F)(F)F | – | – | 0.41 | – | –
O=C1Cc2cc(Nc3ncc(Cl)c(NCc4ccccn4)n3)ccc2N1 | – | 77 | < 0.28 | > 1000 | –
CN(c1cccc(CNc2nc(Nc3ccc4c(c3)CC(=O)N4)ncc2C(F)(F)F)c1)S(C)(=O)=O | – | 1.9 | 0.59 | 190 | –
